Laboratory results published in patent publication US20220128542A1, “TREATMENT EFFICIENCY EVALUATION” (TX MEDIC AB, priority 2019, published 2022).

Tested on: brain of rats subjected to severe traumatic brain injury (sTBI)
Test: Ingenuity pathway analysis of differentially regulated genes after sTBI (canonical pathways, diseases and molecular functions; Example 4)
Design: species or system rat
Conditions: 2 days after TBI
Description: Pathway analysis of the differentially regulated genes was carried out using the Ingenuity pathway analysis package. The analysis was performed with special reference to pathways and molecular processes and diseases associated with neurodegenerative disease, including dementia, Alzheimer's disease, ALS, TBI and stroke, and with scarring and fibrosis, including glaucoma and normal pressure hydrocephalus (NPH) after subarachnoid haemorrhage.

[1] = TBI + 5 mg/kg LMW-DS relative to control

sodium salt of dextran sulfate [LMW-DS] was tested. Which “Apoptosis (disease/function), z score” value (TBI + 5 mg/kg LMW-DS) did it give?
The value was 0.601.

What about the “Behavior (disease/function), z score” value (TBI + 5 mg/kg LMW-DS) of the same substance?
Its value is −2.009.

What about the “Carcinoma (disease/function), z score” value (TBI + 5 mg/kg LMW-DS) of the same substance?
The value was −2.071.

What about the “Cell death (disease/function), z score” value (TBI + 5 mg/kg LMW-DS) of the same substance?
The value was 0.051.

And the “Cell death of antigen presenting cells (disease/function), z score” value (TBI + 5 mg/kg LMW-DS)?
Its value is −0.62.

And the “Cell death of immune cells (disease/function), z score” value (TBI + 5 mg/kg LMW-DS)?
The value was −1.

What about the “Cell death of tumor cell lines (disease/function), z score” value (TBI + 5 mg/kg LMW-DS) of the same substance?
The value was −1.947.

What about the “Cell movement (disease/function), z score” value (TBI + 5 mg/kg LMW-DS) of the same substance?
Its value is −3.723.

What about the “Cell movement of tumor cell lines (disease/function), z score” value (TBI + 5 mg/kg LMW-DS) of the same substance?
The value was −2.078.

What about the “Cell proliferation of leukocyte cell lines (disease/function), z score” value (TBI + 5 mg/kg LMW-DS) of the same substance?
The value was −2.754.

What about the “Cellular homeostasis (disease/function), z score” value (TBI + 5 mg/kg LMW-DS) of the same substance?
The value was −3.19.

And the “Chemotaxis (disease/function), z score” value (TBI + 5 mg/kg LMW-DS)?
Its value is −3.642.

What about the “Concentration of prostaglandin (disease/function), z score” value (TBI + 5 mg/kg LMW-DS) of the same substance?
The value was −0.911.

And the “Development of vasculature (disease/function), z score” value (TBI + 5 mg/kg LMW-DS)?
The value was −1.534.

What about the “Digestive organ tumor (disease/function), z score” value (TBI + 5 mg/kg LMW-DS) of the same substance?
Its value is −1.149.

And the “Digestive system cancer (disease/function), z score” value (TBI + 5 mg/kg LMW-DS)?
The value was −2.221.

And the “Edema (disease/function), z score” value (TBI + 5 mg/kg LMW-DS)?
Its value is 3.386.

And the “Epithelial neoplasm (disease/function), z score” value (TBI + 5 mg/kg LMW-DS)?
Its value is −1.393.

And the “Extracranial solid tumor (disease/function), z score” value (TBI + 5 mg/kg LMW-DS)?
The value was −0.992.

What about the “Feeding (disease/function), z score” value (TBI + 5 mg/kg LMW-DS) of the same substance?
Its value is −0.895.

And the “Growth of tumor (disease/function), z score” value (TBI + 5 mg/kg LMW-DS)?
Its value is −1.233.

What about the “Hematologic cancer (disease/function), z score” value (TBI + 5 mg/kg LMW-DS) of the same substance?
The value was −1.067.

And the “Incidence of tumor (disease/function), z score” value (TBI + 5 mg/kg LMW-DS)?
Its value is −0.731.

What about the “Leukocyte migration (disease/function), z score” value (TBI + 5 mg/kg LMW-DS) of the same substance?
The value was −2.163.

What about the “Leukopoiesis (disease/function), z score” value (TBI + 5 mg/kg LMW-DS) of the same substance?
The value was −3.549.

And the “Locomotion (disease/function), z score” value (TBI + 5 mg/kg LMW-DS)?
Its value is −0.039.

And the “Lymphocyte homeostasis (disease/function), z score” value (TBI + 5 mg/kg LMW-DS)?
Its value is −2.94.

And the “Lymphocytic cancer (disease/function), z score” value (TBI + 5 mg/kg LMW-DS)?
The value was −0.48.

And the “Lymphocytic neoplasm (disease/function), z score” value (TBI + 5 mg/kg LMW-DS)?
Its value is −0.48.

What about the “Lymphopoiesis (disease/function), z score” value (TBI + 5 mg/kg LMW-DS) of the same substance?
Its value is −3.105.

And the “Lymphoproliferative disorder (disease/function), z score” value (TBI + 5 mg/kg LMW-DS)?
The value was −0.48.

And the “Malignant solid tumor (disease/function), z score” value (TBI + 5 mg/kg LMW-DS)?
Its value is −1.492.

And the “Metabolism of hormone (disease/function), z score” value (TBI + 5 mg/kg LMW-DS)?
Its value is −1.632.

What about the “Migration of cells (disease/function), z score” value (TBI + 5 mg/kg LMW-DS) of the same substance?
Its value is −3.087.

And the “NF-κB Signaling canonical pathway, effect” value (TBI + 5 mg/kg LMW-DS)?
Its value is “Inhibited”.

And the “Necrosis (disease/function), z score” value (TBI + 5 mg/kg LMW-DS)?
Its value is −1.503.

And the “Neoplasia of leukocytes (disease/function), z score” value (TBI + 5 mg/kg LMW-DS)?
Its value is −0.48.

And the “Non-melanoma solid tumor (disease/function), z score” value (TBI + 5 mg/kg LMW-DS)?
Its value is −1.249.

And the “Osteoarthritis Pathway canonical pathway, effect” value (TBI + 5 mg/kg LMW-DS)?
Its value is “Inhibited”.

What about the “Proliferation of hematopoietic progenitor cells (disease/function), z score” value (TBI + 5 mg/kg LMW-DS) of the same substance?
Its value is −2.951.

What about the “Quantity of cells (disease/function), z score” value (TBI + 5 mg/kg LMW-DS) of the same substance?
The value was −3.092.

What about the “Quantity of epithelial tissue (disease/function), z score” value (TBI + 5 mg/kg LMW-DS) of the same substance?
The value was −0.028.

What about the “Quantity of neuroglia (disease/function), z score” value (TBI + 5 mg/kg LMW-DS) of the same substance?
Its value is −1.446.

And the “Resorption of bone (disease/function), z score” value (TBI + 5 mg/kg LMW-DS)?
The value was −0.478.

And the “Role of NFAT in Cardiac Hypertrophy canonical pathway, effect” value (TBI + 5 mg/kg LMW-DS)?
Its value is “Inhibited”.

What about the “Secretion of molecule (disease/function), z score” value (TBI + 5 mg/kg LMW-DS) of the same substance?
Its value is 1.634.

And the “Size of body (disease/function), z score” value (TBI + 5 mg/kg LMW-DS)?
The value was −4.771.

What about the “Synthesis of hormone (disease/function), z score” value (TBI + 5 mg/kg LMW-DS) of the same substance?
The value was −1.632.

What about the “Transport of molecule (disease/function), z score” value (TBI + 5 mg/kg LMW-DS) of the same substance?
The value was 0.248.

And the “Vasculogenesis (disease/function), z score” value (TBI + 5 mg/kg LMW-DS)?
Its value is −2.274.

And the “Adrenomedullin Signaling pathway canonical pathway, z score” value [1]?
The value was −2.236.

And the “NF-κB Signaling canonical pathway, z score” value [1]?
Its value is −2.

What about the “Osteoarthritis Pathway canonical pathway, z score” value [1] of the same substance?
The value was −2.646.

What about the “Role of NFAT in Cardiac Hypertrophy canonical pathway, z score” value [1] of the same substance?
The value was −1.633.

And the “Apoptosis (disease/function), z score” value (TBI + 15 mg/kg LMW-DS)?
Its value is −0.502.

What about the “Apoptosis of tumor cell lines (disease/function), z score” value (TBI + 15 mg/kg LMW-DS) of the same substance?
The value was 0.09.

And the “Behavior (disease/function), z score” value (TBI + 15 mg/kg LMW-DS)?
Its value is −0.139.

What about the “Cell death (disease/function), z score” value (TBI + 15 mg/kg LMW-DS) of the same substance?
Its value is −0.141.

What about the “Necrosis (disease/function), z score” value (TBI + 15 mg/kg LMW-DS) of the same substance?
Its value is −0.477.

What about the “Quantity of blood cells (disease/function), z score” value (TBI + 15 mg/kg LMW-DS) of the same substance?
The value was −0.34.

And the “Quantity of cells (disease/function), z score” value (TBI + 15 mg/kg LMW-DS)?
The value was −0.797.

And the “Quantity of lymphocytes (disease/function), z score” value (TBI + 15 mg/kg LMW-DS)?
Its value is −0.943.

What about the “Transcription of RNA (disease/function), z score” value (TBI + 15 mg/kg LMW-DS) of the same substance?
Its value is −2.488.

What about the “Effect on diseases or functions annotation: Abdominal cancer” value (TBI + 1 mg/kg LMW-DS) of the same substance?
The value was “Inhibited”.

And the “Effect on diseases or functions annotation: Abdominal carcinoma” value (TBI + 1 mg/kg LMW-DS)?
The value was “Inhibited”.

And the “Effect on diseases or functions annotation: Abdominal neoplasm” value (TBI + 1 mg/kg LMW-DS)?
The value was “Inhibited”.

And the “Effect on diseases or functions annotation: Activation of blood cells” value (TBI + 1 mg/kg LMW-DS)?
The value was “Activated”.

And the “Effect on diseases or functions annotation: Activation of cells” value (TBI + 1 mg/kg LMW-DS)?
Its value is “Activated”.

What about the “Effect on diseases or functions annotation: Activation of leukocytes” value (TBI + 1 mg/kg LMW-DS) of the same substance?
The value was “Activated”.

What about the “Effect on diseases or functions annotation: Activation of lymphocytes” value (TBI + 1 mg/kg LMW-DS) of the same substance?
Its value is “Inhibited”.

What about the “Effect on diseases or functions annotation: Adhesion of tumor cell lines” value (TBI + 1 mg/kg LMW-DS) of the same substance?
Its value is “Activated”.

What about the “Effect on diseases or functions annotation: Apoptosis” value (TBI + 1 mg/kg LMW-DS) of the same substance?
Its value is “Inhibited”.
